Peptide text beside a SMILES is read from it.
What was measured:
[1] = system: intestinal enzymes such as carboxypeptidase and chymotrypsin; experiment: hydrolysis in the gastrointestinal tract or blood of the consumer; assay type: in vivo; conditions: after drinking a sweetened beverage
α-chymotrypsin = α-chymotrypsin (Bos taurus, UniProt P00766); conditions: after 15 minutes at room temperature; 10:1 substrate:enzyme; 0.5 M ammonium acetate, pH 8

SMILES	does not hydrolyze cleave or break down in the gastrointestinal tract or blood [1]	hydrolysis by α-chymotrypsin (α-chymotrypsin)
COC(=O)[C@H](Cc1ccccc1)NC(=O)C1(N)CC1C(=O)O (some centres unmarked) [Example XXXVIII, 1-Aminocyclopropane-2-carboxylic Acid-1-carboxyl Phenylalanine Methyl Ester]	at least 24 hours	–
COC(=O)[C@H](Cc1ccccc1)NC(=O)[C@@H](N)CC(=O)O [aspartame] (H-Asp-Phe-OMe)	–	hydrolyzed
